Earlier results in patent publication US11612579B2, “Compositions comprising a fatty acid oil mixture and a surfactant, and methods and uses thereof” (PRONOVA BIOPHARMA NORGE AS, priority 2009, dated 2023).
Several values for one entry are separate records, joined by “and”; a condition that tells them apart may be missing. Equal values may be shown once.

Conditions: commercially-available surfactants

| Compound | HLB Value |
| --- | --- |
| CCCCCCCCCCCCCCCC[N+](C)(C)C.[Br-] [Cetrimonium bromide] | 23.3 |
| CCCCCCCCCCCC(=O)OCCOCCO [Diethylene glycol monolaurate] | 6.1 |
| CCCCCCCCCCCCCCCCCC(=O)OCCOC(=O)CCCCCCCCCCCCCCCCC [Ethylene glycol distearate] | 1.5 |
| CCCCCCCCCCCCCCCCCC(=O)OCC(O)CO (centres unmarked) [Glyceryl monostearate] | 3.3 and 3.8 |
| CCCCCCCCCCCCOS(=O)(=O)[O-].[Na+] [Sodium lauryl sulphate] | 40 |
| sorbitan monooleate [Span ® 80] | 4.3 |
| sorbitan monopalmitate [Span ® 40] | 6.7 |
| sorbitan monostearate [Span ® 60] | 4.7 |
